Results as given in US10131692B2, “Vasopressin-2 receptor agonists” (Ferring B.V., priority 2013, dated 2018).

How the values were obtained:
[1] = molecular target: human V2 receptor (h V2R) (Homo sapiens (Human), UniProt P30518); assay: hV2 receptor agonist transcriptional reporter gene (luciferase) assay; assay type: cell-based; settings: HEK-293 cells transiently transfected with hV2 receptor, dDAVP internal control
[2] = in vivo; cited from earlier work

| Substance | % Efficacy hV2-R [1] | route of clearance from the body [2] |
| --- | --- | --- |
| [Val4]dDAVP [Compound 43] | 89% |  |
| [1-deamino, 8-D-arginine]-vasopressin [Compound 42] |  | cleared from the body primarily by the kidneys |
